According to PMC8253220, “Molecular design, synthesis and in vitro biological evaluation of thienopyrimidine–hydroxamic acids as chimeric kinase HDAC inhibitors: a challenging approach to combat cancer” (Journal of Enzyme Inhibition and Medicinal Chemistry, 2021):
“And” between values parts separate entries of the source, which are not always exact repeats. Identical values can stand only once.

Experiments:
Test in all cases: NCI one-dose screen
Type in all cases: cell-based, human
786-0 = settings: Renal 786-0, 10 µM single dose
Procedure, shortened: (§1)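 One concentration (10 μM) applied to each line of the full NCI-60 panel; percent growth compared against untreated cells.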

A549/ATCC = settings: NSCLC A549/ATCC, 10 µM single dose
Procedure, shortened: as §1

BT-549 = settings: Breast BT-549, 10 µM single dose
Procedure, shortened: as §1

CAKI-1 = settings: Renal CAKI-1, 10 µM single dose
Procedure, shortened: as §1

CCRF-CEM = settings: Leukemia CCRF-CEM, 10 µM single dose
Procedure, shortened: as §1

DU-145 = settings: Prostate DU-145, 10 µM single dose
Procedure, shortened: as §1

HCT-116 = settings: Colon HCT-116, 10 µM single dose
Procedure, shortened: as §1

HCT-15 = settings: Colon HCT-15, 10 µM single dose
Procedure, shortened: as §1

HL-60(TB) = settings: Leukemia HL-60(TB), 10 µM single dose
Procedure, shortened: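 At 10 μM, a single concentration, compounds were evaluated for antiproliferative effect in the NCI 60-line screen, with growth expressed relative to untreated control cells.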

HOP-92 = settings: NSCLC HOP-92, 10 µM single dose
Procedure, shortened: as §1

HS 578T = settings: Breast HS 578T, 10 µM single dose
Procedure, shortened: as §1

HT29 = settings: Colon HT29, 10 µM single dose
Procedure, shortened: as §1

KM12 = settings: Colon KM12, 10 µM single dose
Procedure, shortened: (§2)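 Percent growth inhibition, referenced to untreated control cells, was determined after a single 10 μM compound exposure in the NCI 60-cell-line anticancer screen.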

M14 = settings: Melanoma M14, 10 µM single dose
Procedure, shortened: as §1

MDA-MB-435 = settings: Melanoma MDA-MB-435, 10 µM single dose
Procedure, shortened: as §1

MOLT-4 = settings: Leukemia MOLT-4, 10 µM single dose
Procedure, shortened: as §2

NCI-H23 = settings: NSCLC NCI-H23, 10 µM single dose
Procedure, shortened: as §2

NCI-H322M = settings: NSCLC NCI-H322M, 10 µM single dose
Procedure, shortened: as §1

NCI-H522 = settings: NSCLC NCI-H522, 10 µM single dose
Procedure, shortened: (§3)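 Following the standard NCI-60 protocol, compounds were applied once at 10 μM to all 60 cancer lines. Read-out is percent growth versus untreated controls, expressed as inhibition %.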

NCI/ADR-RES = settings: Ovarian NCI/ADR-RES, 10 µM single dose
Procedure, shortened: as §1

OVCAR-3 = settings: Ovarian OVCAR-3, 10 µM single dose
Procedure, shortened: as §1

OVCAR-4 = settings: Ovarian OVCAR-4, 10 µM single dose
Procedure, shortened: as §1

OVCAR-8 = settings: Ovarian OVCAR-8, 10 µM single dose
Procedure, shortened: as §1

RPMI-8226 = settings: Leukemia RPMI-8226, 10 µM single dose
Procedure, shortened: as §1

SF-268 = settings: CNS SF-268, 10 µM single dose
Procedure, shortened: as §2

SF-295 = settings: CNS SF-295, 10 µM single dose
Procedure, shortened: as §1

SF-539 = settings: CNS SF-539, 10 µM single dose
Procedure, shortened: as §2

SK-MEL-28 = settings: Melanoma SK-MEL-28, 10 µM single dose
Procedure, shortened: as §1

SK-MEL-2 = settings: Melanoma SK-MEL-2, 10 µM single dose
Procedure, shortened: (§4)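 In vitro antiproliferative testing: NCI-60 panel, initial single dose 10 μM, inhibition % derived from percent growth of treated versus untreated control cells.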

SNB-19 = settings: CNS SNB-19, 10 µM single dose
Procedure, shortened: as §4

SNB-75 = settings: CNS SNB-75, 10 µM single dose
Procedure, shortened: as §3

SR = settings: Leukemia SR, 10 µM single dose
Procedure, shortened: as §1

TK-10 = settings: Renal TK-10, 10 µM single dose
Procedure, shortened: as §1

U251 = settings: CNS U251, 10 µM single dose
Procedure, shortened: as §3

UACC-62 = settings: Melanoma UACC-62, 10 µM single dose
Procedure, shortened: as §1

UO-31 = settings: Renal UO-31, 10 µM single dose
Procedure, shortened: as §3

Row | SMILES | Growth Percent (786-0) | Growth Percent (A549/ATCC) | Growth Percent (BT-549) | Growth Percent (CAKI-1) | Growth Percent (CCRF-CEM) | Growth Percent (DU-145) | Growth Percent (HCT-116) | Growth Percent (HCT-15) | Growth Percent (HL-60(TB)) | Growth Percent (HOP-92) | Growth Percent (HS 578T) | Growth Percent (HT29) | Growth Percent (KM12) | Growth Percent (M14) | Growth Percent (MDA-MB-435) | Growth Percent (MOLT-4) | Growth Percent (NCI-H23) | Growth Percent (NCI-H322M) | Growth Percent (NCI-H522) | Growth Percent (NCI/ADR-RES) | further results
1 | Cc1c(C(=O)NCCCC(=O)NO)sc2ncnc(Nc3ccc(Cl)cc3)c12 [Compound 20c, 4–(4-chlorophenylamino)-N-(4-(hydroxyamino)-4-oxobutyl)-5-methylthieno[2,3-d]pyrimidine-6-carboxamide] | 83.0% and 83.06% | 104.4% and 104.46% | 116.5% | 93.0% and 93.08% | 108.0% and 108.09% | 116.8% and 116.86% | 108.2% and 108.21% | 99.0% and 99.06% | 103.4% and 103.41% | 111.8% and 111.83% | 99.4% and 99.45% | 108.2% and 108.21% | 101.7% and 101.78% | 107.6% and 107.62% | 103.8% and 103.83% | 108.7% and 108.77% | 94.9% and 94.98% | 101.3% and 101.35% | 91.2% and 91.22% | 100.5% and 100.58% | Growth Percent (OVCAR-3): 106.5% and 106.57%; Growth Percent (OVCAR-4): 109.4%; Growth Percent (OVCAR-8): 105.5%; Growth Percent (RPMI-8226): 103.6% and 103.64%; Growth Percent (SF-268): 97.2% and 97.29%; Growth Percent (SF-295): 101.19%; Growth Percent (SF-539): 95.3% and 95.36%; Growth Percent (SK-MEL-28): 112.3% and 112.39%; Growth Percent (SK-MEL-2): 106.2% and 106.25%; Growth Percent (SNB-19): 99.1% and 99.11%; Growth Percent (SNB-75): 79.1% and 79.17%; Growth Percent (SR): 102.6% and 102.62%; Growth Percent (TK-10): 152.2% and 152.23%; Growth Percent (U251): 103.1% and 103.12%; Growth Percent (UACC-62): 98.8% and 98.83%; Growth Percent (UO-31): 81.5% and 81.51%
2 | Cc1c(C(=O)NO)sc2ncnc(Nc3ccc(NC(=O)Nc4ccccc4)cc3)c12 [Compound 7a, 1–(4-(6-(hydroxycarbamoyl)-5-methylthieno[2,3-d]pyrimidin-4-ylamino)phenyl)-3-phenylurea] | 95.9% and 95.93% | 103.8% and 103.82% | 87.6% | 91.6% and 91.67% | 97.4% and 97.44% | 100.2% and 100.26% | 93.8% and 93.86% | 99.1% and 99.16% | 102.2% and 102.25% | 117.3% and 117.36% | 97.7% and 97.71% | 94.7% and 94.78% | 94.8% and 94.85% | 95.1% and 95.18% | 102.0% and 102.09% | 103.9% and 103.94% | 101.19% | 98.4% and 98.47% | 92.0% and 92.04% | 102.1% and 102.16% | Growth Percent (OVCAR-3): 105.4% and 105.48%; Growth Percent (OVCAR-4): 94.1% and 94.11%; Growth Percent (OVCAR-8): 106.3% and 106.33%; Growth Percent (RPMI-8226): 105.4% and 105.45%; Growth Percent (SF-268): 91.7%; Growth Percent (SF-295): 96.2% and 96.23%; Growth Percent (SF-539): 96.0%; Growth Percent (SK-MEL-28): 104.3% and 104.39%; Growth Percent (SK-MEL-2): 107.8%; Growth Percent (SNB-19): 100.2%; Growth Percent (SNB-75): 75.5% and 75.56%; Growth Percent (SR): 99.1% and 99.16%; Growth Percent (TK-10): 108.5% and 108.59%; Growth Percent (U251): 89.3% and 89.34%; Growth Percent (UACC-62): 101.7% and 101.73%; Growth Percent (UO-31): 74.6% and 74.65%
